Data as given in the supplement of paper PMC12463676, “Small-molecule dissolution of stress granules by redox modulation benefits ALS models” (Nature Chemical Biology, 2025).

How the values were obtained:
potassium arsenate = compound: O=[As]([O-])(O)O.[K+] [potassium arsenate]; test: thermal stability z-score vs DMSO; higher = more thermally stabilized by treatment; conditions: HeLa; arsenate concentration 1 mM
Description: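 Cellular thermal proteome profiling in HeLa cells treated with 1 mM arsenate for 1 h (DMSO pretreatment), heated to ten temperatures (37-66.3 °C). Soluble protein was quantified by TMT mass spectrometry relative to DMSO controls; the thermal stability score was transformed to a z-score; mean of n = 3 experiments.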

lipoamide = compound: NC(=O)CCCCC1CCSS1 [lipoamide]; test: as above; conditions: HeLa, lipoamide concentration 100 µM
Description: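 Cellular thermal proteome profiling in HeLa cells. Cells were treated with 100 µM lipoamide for 1 h, with or without 1 mM arsenate for a further 1 h, then heated to ten temperatures (37-66.3 °C), and soluble protein was quantified by TMT mass spectrometry relative to 0.1% DMSO controls. The thermal stability score (sum of log2 fold changes minus the abundance score) was transformed to a z-score; mean of n = 3 experiments.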

[1] = arsenate co-treatment: 1 mM arsenate 1 h
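Further: each temperature applied for 3 min, abundance score taken as mean log2 fold change at the two lowest temperatures, z-score obtained by mean subtraction and division by SD.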

UniProt O75717, sequence (O75717 whole entry): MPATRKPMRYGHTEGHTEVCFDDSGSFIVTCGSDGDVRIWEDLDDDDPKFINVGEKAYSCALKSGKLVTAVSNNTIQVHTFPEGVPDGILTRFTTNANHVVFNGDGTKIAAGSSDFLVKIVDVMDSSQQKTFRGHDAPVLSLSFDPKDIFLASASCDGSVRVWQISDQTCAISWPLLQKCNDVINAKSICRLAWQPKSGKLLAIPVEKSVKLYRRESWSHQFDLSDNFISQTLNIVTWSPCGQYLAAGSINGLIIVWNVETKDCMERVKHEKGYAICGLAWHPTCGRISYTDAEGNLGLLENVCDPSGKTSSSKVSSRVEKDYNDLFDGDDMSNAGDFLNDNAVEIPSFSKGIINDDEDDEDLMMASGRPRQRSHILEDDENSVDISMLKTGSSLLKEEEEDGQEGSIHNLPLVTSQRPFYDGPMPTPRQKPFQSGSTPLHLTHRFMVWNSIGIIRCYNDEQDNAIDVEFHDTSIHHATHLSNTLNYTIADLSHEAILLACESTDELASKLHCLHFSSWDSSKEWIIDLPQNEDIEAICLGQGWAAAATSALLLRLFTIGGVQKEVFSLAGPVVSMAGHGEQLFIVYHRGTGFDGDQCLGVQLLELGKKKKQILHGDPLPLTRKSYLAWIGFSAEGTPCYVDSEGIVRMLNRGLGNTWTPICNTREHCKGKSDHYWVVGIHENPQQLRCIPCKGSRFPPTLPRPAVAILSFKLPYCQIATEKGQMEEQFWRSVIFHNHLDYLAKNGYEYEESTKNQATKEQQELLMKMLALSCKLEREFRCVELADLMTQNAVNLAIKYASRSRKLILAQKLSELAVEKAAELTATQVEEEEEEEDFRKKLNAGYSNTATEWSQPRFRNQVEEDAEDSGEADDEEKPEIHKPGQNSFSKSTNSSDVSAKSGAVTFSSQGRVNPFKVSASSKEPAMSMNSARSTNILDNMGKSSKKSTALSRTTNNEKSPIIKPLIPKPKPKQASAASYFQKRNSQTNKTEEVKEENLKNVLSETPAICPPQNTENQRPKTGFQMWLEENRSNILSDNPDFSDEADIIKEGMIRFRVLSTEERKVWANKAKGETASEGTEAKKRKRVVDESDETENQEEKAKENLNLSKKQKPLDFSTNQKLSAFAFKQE
UniProt P08621, sequence (P08621 whole entry): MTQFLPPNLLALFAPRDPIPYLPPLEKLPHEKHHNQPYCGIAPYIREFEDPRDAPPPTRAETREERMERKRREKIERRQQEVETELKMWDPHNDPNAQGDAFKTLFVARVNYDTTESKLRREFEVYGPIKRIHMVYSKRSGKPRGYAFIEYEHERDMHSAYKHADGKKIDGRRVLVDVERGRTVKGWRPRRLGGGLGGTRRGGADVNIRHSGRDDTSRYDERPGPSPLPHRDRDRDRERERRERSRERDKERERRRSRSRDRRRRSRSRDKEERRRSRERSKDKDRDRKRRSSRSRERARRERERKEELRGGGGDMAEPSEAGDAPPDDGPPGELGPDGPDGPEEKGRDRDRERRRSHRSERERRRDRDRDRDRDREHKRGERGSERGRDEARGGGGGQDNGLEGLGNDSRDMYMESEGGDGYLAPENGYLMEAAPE
UniProt O00422, sequence (O00422 whole entry): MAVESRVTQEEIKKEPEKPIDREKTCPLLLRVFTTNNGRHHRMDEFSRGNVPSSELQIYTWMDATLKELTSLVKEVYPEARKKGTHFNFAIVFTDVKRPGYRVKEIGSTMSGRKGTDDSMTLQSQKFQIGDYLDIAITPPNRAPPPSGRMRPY
UniProt Q92820, sequence (Q92820 whole entry): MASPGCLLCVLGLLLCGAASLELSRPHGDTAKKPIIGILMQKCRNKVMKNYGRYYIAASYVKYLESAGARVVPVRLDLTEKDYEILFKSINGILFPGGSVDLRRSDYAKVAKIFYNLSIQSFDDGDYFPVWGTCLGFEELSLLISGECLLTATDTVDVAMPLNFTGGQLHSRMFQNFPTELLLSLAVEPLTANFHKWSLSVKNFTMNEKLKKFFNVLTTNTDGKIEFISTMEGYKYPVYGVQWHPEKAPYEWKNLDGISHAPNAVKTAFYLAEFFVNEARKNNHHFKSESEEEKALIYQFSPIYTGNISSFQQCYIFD
UniProt Q96H79, sequence (Q96H79 whole entry): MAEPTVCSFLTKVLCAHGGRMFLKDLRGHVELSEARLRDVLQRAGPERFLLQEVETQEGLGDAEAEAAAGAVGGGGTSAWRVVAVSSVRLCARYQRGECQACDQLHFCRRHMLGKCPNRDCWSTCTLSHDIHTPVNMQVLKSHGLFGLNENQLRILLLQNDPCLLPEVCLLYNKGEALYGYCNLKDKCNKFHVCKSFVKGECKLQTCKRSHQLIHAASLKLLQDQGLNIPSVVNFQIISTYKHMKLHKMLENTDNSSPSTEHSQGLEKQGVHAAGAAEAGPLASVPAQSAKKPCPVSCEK
UniProt Q8WUB8, sequence (Q8WUB8 whole entry): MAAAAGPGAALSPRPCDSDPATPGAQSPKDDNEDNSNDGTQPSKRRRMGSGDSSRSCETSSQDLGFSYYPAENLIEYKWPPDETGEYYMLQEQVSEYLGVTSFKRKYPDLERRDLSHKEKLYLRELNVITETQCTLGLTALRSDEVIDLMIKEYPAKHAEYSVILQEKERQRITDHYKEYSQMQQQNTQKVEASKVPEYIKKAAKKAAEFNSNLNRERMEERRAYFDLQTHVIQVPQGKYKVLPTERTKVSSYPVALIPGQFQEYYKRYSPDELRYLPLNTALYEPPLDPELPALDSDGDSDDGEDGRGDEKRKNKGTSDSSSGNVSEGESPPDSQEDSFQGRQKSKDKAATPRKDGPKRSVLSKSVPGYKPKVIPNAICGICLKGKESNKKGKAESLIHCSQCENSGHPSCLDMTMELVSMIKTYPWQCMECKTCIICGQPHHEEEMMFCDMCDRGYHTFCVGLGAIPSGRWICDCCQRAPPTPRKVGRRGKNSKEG
UniProt Q6PI26, sequence (Q6PI26 whole entry): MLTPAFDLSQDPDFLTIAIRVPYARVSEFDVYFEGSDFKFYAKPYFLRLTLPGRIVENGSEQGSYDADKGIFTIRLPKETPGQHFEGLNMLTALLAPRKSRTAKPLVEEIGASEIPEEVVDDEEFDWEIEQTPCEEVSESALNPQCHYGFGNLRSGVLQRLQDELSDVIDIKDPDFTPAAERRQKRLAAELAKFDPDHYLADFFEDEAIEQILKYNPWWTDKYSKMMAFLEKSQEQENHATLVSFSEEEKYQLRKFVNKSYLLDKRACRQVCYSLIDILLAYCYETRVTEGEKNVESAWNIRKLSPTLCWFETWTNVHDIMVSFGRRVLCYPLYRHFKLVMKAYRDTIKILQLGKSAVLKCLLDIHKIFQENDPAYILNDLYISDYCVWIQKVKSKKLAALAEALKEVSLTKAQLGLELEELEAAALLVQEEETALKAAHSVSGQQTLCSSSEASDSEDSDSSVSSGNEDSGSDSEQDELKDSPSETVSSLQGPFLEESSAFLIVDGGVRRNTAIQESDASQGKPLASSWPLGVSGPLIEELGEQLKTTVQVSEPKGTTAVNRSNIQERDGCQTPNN
UniProt Q96BS2, sequence (Q96BS2 whole entry): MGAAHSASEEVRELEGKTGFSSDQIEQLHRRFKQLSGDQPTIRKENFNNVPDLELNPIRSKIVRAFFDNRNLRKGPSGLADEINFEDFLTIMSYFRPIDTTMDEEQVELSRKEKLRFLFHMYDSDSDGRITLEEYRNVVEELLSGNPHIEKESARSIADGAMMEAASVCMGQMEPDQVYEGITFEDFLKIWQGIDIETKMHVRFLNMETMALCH
UniProt Q00537, sequence (Q00537 whole entry, looked up): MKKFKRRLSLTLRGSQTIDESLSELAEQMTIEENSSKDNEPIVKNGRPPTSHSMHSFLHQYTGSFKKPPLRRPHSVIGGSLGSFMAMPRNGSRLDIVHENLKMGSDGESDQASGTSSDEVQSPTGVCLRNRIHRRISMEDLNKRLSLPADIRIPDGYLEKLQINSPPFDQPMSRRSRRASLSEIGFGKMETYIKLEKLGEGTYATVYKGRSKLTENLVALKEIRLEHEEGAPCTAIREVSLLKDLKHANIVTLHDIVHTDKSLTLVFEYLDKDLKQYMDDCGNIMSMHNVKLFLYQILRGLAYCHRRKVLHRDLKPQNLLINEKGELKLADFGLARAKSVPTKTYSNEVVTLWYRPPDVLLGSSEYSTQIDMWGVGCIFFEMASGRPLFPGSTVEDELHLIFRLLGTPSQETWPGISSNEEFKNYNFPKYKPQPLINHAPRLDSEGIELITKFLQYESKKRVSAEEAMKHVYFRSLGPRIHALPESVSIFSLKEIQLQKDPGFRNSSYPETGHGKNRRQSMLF
UniProt Q9NZ63, sequence (Q9NZ63 whole entry): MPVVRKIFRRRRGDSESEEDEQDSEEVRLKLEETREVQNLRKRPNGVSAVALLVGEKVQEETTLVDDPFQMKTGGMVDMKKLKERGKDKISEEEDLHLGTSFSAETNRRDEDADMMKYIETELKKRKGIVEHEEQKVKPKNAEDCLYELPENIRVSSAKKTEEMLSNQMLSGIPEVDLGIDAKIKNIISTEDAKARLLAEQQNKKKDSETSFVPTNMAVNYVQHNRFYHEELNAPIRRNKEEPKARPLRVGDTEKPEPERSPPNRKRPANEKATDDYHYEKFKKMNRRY
UniProt Q16831, sequence (Q16831 whole entry, looked up): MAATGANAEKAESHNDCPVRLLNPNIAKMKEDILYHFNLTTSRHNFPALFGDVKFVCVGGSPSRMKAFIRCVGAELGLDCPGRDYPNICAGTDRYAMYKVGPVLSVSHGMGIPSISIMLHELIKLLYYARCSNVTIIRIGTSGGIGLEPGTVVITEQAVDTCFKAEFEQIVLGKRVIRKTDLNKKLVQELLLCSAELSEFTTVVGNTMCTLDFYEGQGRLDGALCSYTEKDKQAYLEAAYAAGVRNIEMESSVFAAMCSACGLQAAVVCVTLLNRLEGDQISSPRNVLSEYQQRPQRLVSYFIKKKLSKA
UniProt P20674, sequence (P20674 whole entry): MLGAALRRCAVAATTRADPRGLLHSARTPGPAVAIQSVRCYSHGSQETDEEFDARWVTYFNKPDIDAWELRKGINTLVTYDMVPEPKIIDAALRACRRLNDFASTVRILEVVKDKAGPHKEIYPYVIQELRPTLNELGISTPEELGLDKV

Target	thermal stability z-score (potassium arsenate)	thermal stability z-score (lipoamide; [1])	thermal stability z-score (lipoamide; arsenate co-treatment: none)
OXR1 (UniProt Q8N573)	0.101	0.209	0.17
MAPKAPK3 (UniProt Q16644)	-0.508	-0.203	-0.362
TESC (UniProt Q96BS2)	0.846	0.565	0.315
GGH (UniProt Q92820)	0.317	0.661	0.64
PFDN1 (UniProt O60925)	0.744	1.42	1.53
DSP (UniProt P15924)	-0.576	3.08	3.94
CLIC1 (UniProt O00299)	-0.144	0.85	0.348
UniProt E7EQ34|GOSR2	-0.878	-0.785	-0.401
HERC1 (UniProt Q15751)	-0.0795	-0.83	-0.54
POP4 (UniProt O95707)	-0.193	0.462	0.069
LARP1 (UniProt Q6PKG0)	1.03	0.375	0.88
HNRNPLL|HNRPLL	-0.917	-0.126	-0.082
NHLRC2 (UniProt Q8NBF2)	-2.19	-0.233	0.152
HSD17B7 (UniProt P56937)	1.82	0.202	0.543
CLTCL1 (UniProt P53675)	0.858	0.147	0.15
UBTF (UniProt P17480)	0.532	0.142	0.184
ING1 (UniProt Q9UK53)	-1.34	1.11	0.466
ZYX (UniProt Q15942)	-0.00636	0.568	0.672

Target	thermal stability z-score (potassium arsenate)	thermal stability z-score (lipoamide; [1])	thermal stability z-score (lipoamide; arsenate co-treatment: none)
RALGAPA1 (UniProt Q6GYQ0)	-2.14	-0.102	-0.115
CDK17 (UniProt Q00537)	-0.0969	1.07	0.395
UPP1 (UniProt Q16831)	-0.16	-0.122	0.244
WDHD1 (UniProt O75717)	-0.982	1.28	1.01
GTF3A (UniProt Q92664)	-1.35	-0.654	-0.754
DPP9 (UniProt Q86TI2)	0.0941	-0.0984	-0.0569
DAB2IP (UniProt Q5VWQ8)	-0.398	-0.101	-0.023
SHQ1 (UniProt Q6PI26)	0.000909	-0.105	0.0326
SNRNP70 (UniProt P08621)	-0.58	-0.195	-0.247
ZC3HAV1L (UniProt Q96H79)	0.0902	0.323	-0.218
USP1 (UniProt O94782)	-0.221	-0.779	-0.444
BTF3 (UniProt P20290)	0.076	0.457	0.48
PHF10 (UniProt Q8WUB8)	-0.359	-0.191	-0.061
STEAP4 (UniProt Q687X5)	0.565	0.438	0.75
C9ORF78 (UniProt Q9NZ63)	0.106	0.058	0.278
COX5A (UniProt P20674)	1.36	2.24	1.82
SAP18 (UniProt O00422)	0.519	0.465	0.0358
